ChEMBL document CHEMBL1126725, “Enantioselectivity of cocaine recognition sites: binding of (1S)- and (1R)-2 beta-carbomethoxy-3 beta-(4-iodophenyl)tropane (beta-CIT) to monoamine transporters” (J Med Chem, 1993)

Assays:
[1] = Tested for its ability to displace [125I]- (1R)-beta-CIT with rat cortical membranes
[2] = target: Sodium-dependent serotonin transporter (Homo sapiens, UniProt P31645); assay: Compounds binding ability to serotonin transporter was evaluated by displacing [3H]paroxetine in baboon brain; parameters: species or system Papio hamadryas
Rattus norvegicus = species: Rattus norvegicus; assay: (§1) Tested for its ability to displace [125I]- (1R)-beta-CIT with rat striatal membranes; parameters: species or system Membrane; details: Striatum
[3] = as §1; parameters: species or system Striatum, Membrane

Sodium-dependent serotonin transporter, sequence (P31645 whole entry): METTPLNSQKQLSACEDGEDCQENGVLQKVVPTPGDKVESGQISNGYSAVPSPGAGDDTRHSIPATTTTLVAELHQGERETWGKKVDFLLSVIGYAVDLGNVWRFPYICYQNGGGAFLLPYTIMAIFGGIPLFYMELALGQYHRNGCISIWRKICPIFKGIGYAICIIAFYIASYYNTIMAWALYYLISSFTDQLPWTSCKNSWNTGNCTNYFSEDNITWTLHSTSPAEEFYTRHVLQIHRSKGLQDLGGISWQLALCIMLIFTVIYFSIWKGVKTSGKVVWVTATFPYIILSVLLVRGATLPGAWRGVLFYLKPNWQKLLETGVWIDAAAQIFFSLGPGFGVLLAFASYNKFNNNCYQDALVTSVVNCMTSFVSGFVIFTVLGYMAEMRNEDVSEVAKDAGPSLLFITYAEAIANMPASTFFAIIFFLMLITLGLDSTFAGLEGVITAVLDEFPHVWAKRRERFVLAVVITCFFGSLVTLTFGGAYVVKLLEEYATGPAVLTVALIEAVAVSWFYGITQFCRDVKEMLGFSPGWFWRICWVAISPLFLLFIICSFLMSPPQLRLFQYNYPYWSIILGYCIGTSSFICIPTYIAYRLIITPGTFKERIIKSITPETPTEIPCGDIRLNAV

SMILES | IC50 [1] [nM] | IC50 [2] [nM] | IC50 (Rattus norvegicus) [nM] | IC50 [3] [nM]
COC(=O)C1C2CC[C@H](C[C@@H]1c1ccc(I)cc1)N2C (stereo not given in full) | 0.55 | 3.8 | 0.42 | 
COC(=O)[C@@H]1C2CC[C@H](C[C@@H]1c1ccc(I)cc1)N2C | 450 |  |  | 5700
